From PMC11912471 (Journal of Medicinal Chemistry, 2025) come the findings set out here.

Counter-ions that a name gives are not always drawn. Like-named read-outs stand apart in the source and are kept apart here. A value given as a limit tells only on which side of the number the result lay.

Data set [1] has as its target T1, purified human ODC enzyme (Homo sapiens, UniProt P11926).
T1 construct: His6 (C); made in house; host or cells: E. coli BL21(DE3)
T1 sequence (P11926 1-461): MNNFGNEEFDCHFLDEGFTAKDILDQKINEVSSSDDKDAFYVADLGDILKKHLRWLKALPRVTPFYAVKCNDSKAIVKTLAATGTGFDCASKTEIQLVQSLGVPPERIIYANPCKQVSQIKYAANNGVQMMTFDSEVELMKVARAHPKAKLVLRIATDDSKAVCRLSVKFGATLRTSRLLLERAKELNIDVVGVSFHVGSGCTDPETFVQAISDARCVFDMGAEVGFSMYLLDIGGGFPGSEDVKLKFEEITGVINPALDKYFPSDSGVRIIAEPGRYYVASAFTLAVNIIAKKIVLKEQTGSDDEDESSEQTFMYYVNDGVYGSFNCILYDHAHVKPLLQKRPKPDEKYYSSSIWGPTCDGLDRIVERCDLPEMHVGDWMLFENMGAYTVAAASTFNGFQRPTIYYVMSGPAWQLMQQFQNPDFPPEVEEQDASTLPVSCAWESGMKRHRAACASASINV
In words: In vitro ODC enzyme activity assay. Particulars: for IC50: read-out: ODC biochemical inhibition IC50. The data set is classed as biochemical. How it is done:
(§1) Our strategy to identify novel ODC inhibitors was to first screen new analogs for ODC inhibition at 50 μM using our in vitro enzyme activity assay and purified human ODC (Table 1). Those showing significant inhibition were then titrated to provide an ODC IC50 followed by cell-based screening against both cancer (Kelly neuroblastoma) and noncancerous (neonatal fibroblasts) cell lines. For the cancer cell line, higher cytotoxicity was desired and for the noncancerous cell line counter screen, lower cytotoxicity was desired.
In vitro ODC activity was measured using 100 ng of purified human ODC enzyme, as we previously described.[53],[99] ODC was incubated with increasing concentrations of inhibitors for 30 min at room temperature in a buffer containing 25 mM Tris and 0.1 mM EDTA. […] In the cell-based ODC activity assay, Kelly neuroblastoma cells that were treated with 500 μM inhibitors were harvested in a buffer containing 25 mM Tris HCl, 0.1 mM EDTA, and 2.5 mM DTT. […] For both the in vitro and cell-based assay, the microcentrifuge tubes were then placed into scintillation vials containing a piece of filter paper saturated with 200 μL of 0.1 M NaOH to capture the release of radiolabeled carbon dioxide. The samples were incubated in a 37 °C incubator while shaking for 30 min (in vitro) or 2 h (cell-based). The enzymatic reaction was stopped by adding 250 μL of 5 M sulfuric acid to each sample and incubating at 37 °C while shaking for 30 min. The microcentrifuge tubes were removed from the scintillation vials, and 5 mL of scintillation fluid was added. Disintegrations per minute (DPM) of each sample was measured using a TriCarb liquid scintillation counter (PerkinElmer). The specific ODC activity is expressed as nmol CO2/min/mg protein (in vitro) or pmol CO2/min/mg protein (cell-based). The individual ODC inhibitor IC50 values were determined using Graphpad Prism 8.

For data set [2], the target named is T2, endogenous ODC in Kelly neuroblastoma cells (Homo sapiens, UniProt P11926).
T2 construct: host or cells: Kelly neuroblastoma cells
T2 sequence (P11926 1-461): T1 sequence (P11926 1-461)
In words: Cell-based ODC activity assay. The note with it: 500 μM inhibitor, Figure 6A. The procedure: In vitro ODC activity was measured using 100 ng of purified human ODC enzyme, as we previously described.[53],[99] ODC was incubated with increasing concentrations of inhibitors for 30 min at room temperature in a buffer containing 25 mM Tris and 0.1 mM EDTA. Each of the reactions was added to 200 μL of assay mix containing 6.25 mM Tris HCl (pH 7.5), 100 μM L-ornithine, 50 μM pyridoxal-5-phosphate, 1.56 mM DTT and 0.1 μCi [1–14C] L-ornithine (American Radiolabeled Chemicals, Inc., specific activity 55 mCi/mmol) in a microcentrifuge tube. In the cell-based ODC activity assay, Kelly neuroblastoma cells that were treated with 500 μM inhibitors were harvested in a buffer containing 25 mM Tris HCl, 0.1 mM EDTA, and 2.5 mM DTT. Fifty microliters of each homogenate were added to 200 μL of assay mix containing 6.25 mM tris HCl (pH 7.5), 500 μM L-ornithine, 50 μM pyridoxal-5-phosphate, 1.56 mM DTT and 0.1 μCi [1–14C] L-ornithine (American Radiolabeled Chemicals, Inc., specific activity 55 mCi/mmol) in a microcentrifuge tube. […] Disintegrations per minute (DPM) of each sample was measured using a TriCarb liquid scintillation counter (PerkinElmer). The specific ODC activity is expressed as nmol CO2/min/mg protein (in vitro) or pmol CO2/min/mg protein (cell-based). The individual ODC inhibitor IC50 values were determined using Graphpad Prism 8.

Data set [3] deals with Kelly neuroblastoma cells. In words: Sulforhodamine B (SRB) cytotoxicity assay, Kelly neuroblastoma cells. The data set is classed as cell-based. Particulars: for Cell cytotoxicity (72 hr @ 500 μM) Kelly Neuroblastoma: percent cytotoxicity; for cytotoxicity at 500 µM: Kelly, 72 hrs @500 µM, supplement csv, read-out: Kelly Neuroblasoma Cells (72 hrs @500 µM) %cytotoxicity. The procedure: as §1
(§2) Normal primary human neonatal fibroblast cells (ATCC) were maintained in DMEM medium (Gibco) supplemented with 10% heat-inactivated fetal bovine serum (Hyclone), penicillin (100 IU/mL), and streptomycin (100 μg/mL), nonessential amino acids (0.1 mM) and sodium pyruvate (1 mM). Kelly neuroblastoma cells (Sigma-Aldrich) were maintained in RPMI medium (Corning) supplemented with 10% heat-inactivated fetal bovine serum (Hyclone), penicillin (100 IU/mL), and streptomycin (100 μg/mL). Cell lines were routinely monitored for mycoplasma contamination using the MycoAlert PLUS Mycoplasma Detection Kit (Lonza).
(§3) The colorimetric sulforhodamine B (SRB) assay was used to measure cytotoxicity following treatment with ODC inhibitors. Briefly, Kelly neuroblastoma cells and normal primary human neonatal fibroblast cells were plated in transparent flat 96-well plates and allowed to attach overnight. Cells were treated with control or 500 μM ODC inhibitor for 72 h. Cells were then fixed with 10% TCA at 4 °C for 1 h, washed with deionized water, and dried at room temperature. Cells were stained with 100 μL of 0.4% SRB in 1% acetic acid for 20 min at room temperature, rinsed five times with 1% acetic acid and allowed to dry at room temperature. One hundred μL of 10 mM Tris–HCl pH 7.0 was added to each well, shaken for 10 min at room temperature and absorbance was read at 540 nm. Absorbance values were normalized relative to control readings and converted to percentage by multiplying by one hundred. The percent cytotoxicity was then determined by subtracting the relative percentage of the ODC inhibitor treated readings from the control which is 100%.

Data set [4] deals with normal primary human neonatal fibroblast cells. Kind of data set: Sulforhodamine B (SRB) cytotoxicity assay, neonatal fibroblasts. Particulars: 500 μM; for Cell cytotoxicity (72 hr @ 500 μM) Neonatal Fibroblasts: percent cytotoxicity. The format is cell-based. How it is done: as §1, §2, §3
Test in data set [5]: as above
The format is cell-based, human. The note with it: human, normal primary neonatal fibroblast cells; 72 hrs @500 µM; supplement csv. The procedure:
as §1, §2, §3

Setting [6] is: read-out: ODC biochemical inhibition % (50 μM).

On to `NCCCON` [APA, 3-(Aminooxy)propan-1-Amine Dihydrochloride], for which the inhibition at 50 µM in data set [1] (50 µM, supplement csv, read-out: ODC % inhibition (screened at 50 µM)) was 99%; in data set [1] (setting [6]), > 99%. Moreover, in data set [1], the IC50 came to 40 nM. Besides, the “endogenous cellular ODC activity relative to control (in words)” value in data set [2] is “significantly reduced”. Further, the “activity against Kelly neuroblastoma cells (in words)” value in data set [3] (72 h, 500 μM) is reported as “greater anticancer activity”. For the same compound, the “Cell cytotoxicity (72 hr @ 500 μM) Kelly Neuroblastoma” value in data set [3] (500 μM) was found to be 77±21%. Further, the cytotoxicity at 500 µM in data set [3] is 77%. The “cytotoxic activity against neonatal fibroblasts (in words)” value in data set [4] (72 h) is reported as “somewhat reduced overt cytotoxic activity”. Besides, the “Cell cytotoxicity (72 hr @ 500 μM) Neonatal Fibroblasts” value in data set [4] was 37±10%. In addition, the cytotoxicity at 72 h, 500 µM in data set [5] was 37%.
Turning to `Cl.Cl.NOCC1(F)CCNC1` (centres unmarked) [Compound 11, 3-[(aminooxy)methyl]-3-fluoropyrrolidine di-formic acid], the inhibition at 50 µM in data set [1] (setting [6]) was > 99%. In addition, the IC50 in data set [1] is 50 nM. Further, the “endogenous cellular ODC activity relative to control (in words)” value in data set [2] is reported as “greatest reduction”. The “Cell cytotoxicity (72 hr @ 500 μM) Kelly Neuroblastoma” value in data set [3] (500 μM) is reported as 46±9%. Further, the cytotoxicity at 500 µM in data set [3] came out at 46%. In data set [4], the “Cell cytotoxicity (72 hr @ 500 μM) Neonatal Fibroblasts” value is on record as 21±17%. Besides, in data set [5], the cytotoxicity at 72 h, 500 µM was determined as 21%.
